According to EP2036556A1, “Piperidone derivatives and medical uses thereof” (Heinrich-Pette-Institut, priority 2007, dated 2009):

How the values were obtained:
HTLV-I = experiment: Inhibition of HTLV-I virus production in MT-2 cells (real-time PCR of gag RNA in supernatant); format: cell-based; conditions: Primate T-lymphotropic virus 1, MT2, 240 h, day 10 and 14, read-out: inhibition of virus production in relation to the solvent control
Description: For the investigation wether the inhibition of DOHH by the compositions of the invention can influence replication of HTLV-I, the lymphoma cell line MT-2, which is latently infected by HTLV-I was used as a model system (Harada et al., 1985, Infection of HTLV-III/LAV in HTLV-I-carrying cells MT-2 and MT-4 and application in a plaque assay. Science 229, 563-566). MT-2 cells continually produce a high amount of virus particles which are secreted into the cell culture supernatant, and they grow quickly. The experimental approach is based on the comparison of the virus load of cells treated with the potential inhibitor and an untreated control. As the inhibitor was dissolved in DMSO, the same amount of this solvent was added to the control cells.
For investigating the influence of inhibition of DOOH on the replication of HTLV-I, as before, MT-2 cells were cultivated with the determined subtoxic concentrations of compound 11 as well as a solvent control. In regular intervals, cell vitality was determined and the RNA of the virus particles from the supernatant was isolated. After reverse transcription with a primer specific for the gag region of HTLV-I RNA, the cDNA was quantified by real-time PCR. For detection of the amplified DNA, a gag-specific probe was used. A plasmid comprising the HTLV-I provirus served as a standard. […]

[1] = system: macrophage cell line J774.1; experiment: Macrophage assay (Alamar Blue cytotoxicity); format: cell-based; conditions: Mus musculus; J774.1 macrophages; after 48h; read-out: ED50 [µM] Macrophage after 48h
Experimental: The macrophage cell line J774.1 was maintained in complete Click RPMI medium. For the experimental procedures cells were detached from the flasks with a rubber police, washed twice with PBS and suspended at 2 x 10^6 cells mL^-1 in complete Click RPMI medium. […] Following the addition of 20 µl of Alamar Blue, the plates were further incubated at similar conditions. The plates were then read 24 and 48 h later. Control experiments to examine the effect of cell density, incubation time and DMSO concentration were performed. Absorbance in the absence of compounds was set as 100 % of growth control.

[2] = system: R5-tropic HIV-1 strain BaL; experiment: HIV-1 infection experiments in PM1 cells, p24 antigen ELISA, strain BaL; format: cell-based
Experimental: (§1) HIV-1 infection experiments using the T-cell tropic (X4) strain NL4/3, the macrophage-tropic (R5) strain BaL were routinely performed using PM1 cells (virus laboratory strains and cells were obtained from the NIH AIDS Research and Reference Reagent Program). Cells were cultured in RPMI medium containing 10 % fetal calf serum (Pansystems GmbH) and antibiotics (penicillin and streptomycin). For HIV-1 infection, 5 x 10^7 cells were resuspended in 500 µl culture medium without drugs and incubated at 37 °C for 3 h with 100 ng of HIV-1 viral stocks. After infection, cells were washed twice with PBS without Ca^2+ and Mg^2+ to avoid false positive p24 antigen determination. Cells were resuspended and identical aliquots (5 x 10^5 / mL) of infected cells were further cultured in 24-well plates (triplicates) in the presence of the drugs (dissolved in DMSO) at various concentrations, or in medium with DMSO as control for the calculation of the inhibition of virus replication. Culture medium was changed and cells were splitted twice a week post-infection. Viability of the cells (as measured by Alamar Blue) and p24 antigen levels (as measured by ELISA; Innogenetics N.V.) were determined at different time points.

[3] = system: T. brucei brucei laboratory strain TC 221; experiment: Trypanosome assay (in vitro cytotoxicity, Alamar Blue); format: cell-based, Trypanosoma brucei brucei; conditions: for EC50: Trypanosoma brucei, strain TC 221, 10^4 trypanosomes per mL, incubated 72 h, reading at 48 h, Alamar Blue, read-out: ED50 [µM] T. brucei brucei
Experimental: Parasite culture: Trypomastigote forms of T. brucei brucei laboratory strain TC 221 were cultured in Baltz medium according to standard conditions.^36 In vitro cytotoxicity assays: The test compounds were dissolved in DMSO or 0.1 M NaOH. A defined number of parasites (10^4 trypanosomes per mL) were exposed in test chambers of 96-well plates to various concentrations of the test substances in a final volume of 200 µl. Positive (trypanosomes in culture medium) and negative controls (test substance without trypanosomes) were run with each plate. The plates were then incubated at 37°C in an atmosphere of 5 % CO2 for a total time period of 72 h. […] The effect of test substances was quantified in ED50 values by linear interpolation^18 of three different measurements. The activity of the test substances was measured by light absorption in an MR 700 Microplate Reader at a wavelength of 550 nm with a reference wave length of 630 nm, using the Alamar Blue®.

[4] = system: X4-tropic HIV-1 strain NL4/3; experiment: HIV-1 infection experiments in PM1 cells, p24 antigen ELISA, strain NL4/3; format: cell-based; conditions: concentration of 6 µM, compared to DMSO control cultures
Experimental: as §1

MT-2 cells = format: cell-based; conditions: human, 10 days, 10 µM
Experimental: First, the subtoxic concentration of the inhibitor was determined by vitality assays. MT-2 cells were cultured for 14 days with 10, 5, 2.5 and 1.5 µM of the inhibitor as well as DMSO as a solvent control. In regular intervals, samples for determination of the vitality of the cells were taken. Vitality was tested with the alamarBlue®-Assays.

plasmodia = conditions: after 48 h; previous study; cited from earlier work
HIV-1 = HIV-1 infection experiments in PM1 cells, strain not specified (BaL and/or NL4/3); format: cell-based; conditions: strain and concentration not given
Experimental: as §1

Structure (SMILES) | EC50 [1] [µM] | EC50 [3] [µM] | activity against the plasmodia (plasmodia) | inhibition of virus replication (HIV-1) [%] | other results
C=CCN1[C@@H](c2ccc([N+](=O)[O-])cc2)C(C(=O)OCC)=C(O)C(C(=O)OCC)[C@@H]1c1ccc([N+](=O)[O-])cc1 (stereo partly drawn) [Compound 11, Diethyl (2R,6S)-1-allyl-4-hydroxy-2,6-bis(4-nitrophenyl)-1,2,3,6-tetrahydropyridine-3,5-dicarboxylate] | > 100 | 3.06 ± 0.55 |  |  | inhibition at 2.5 µM (HTLV-I; 2.5 µM): > 90%; inhibition at 5 µM (HTLV-I; 5 µM): > 80%; inhibition of replication of HIV-1 BaL ([2]; PM1 cells, concentration of 5 µM, compared to DMSO control cultures): completely inhibit; inhibition of replication of HIV-1 NL4/3 [4]: completely inhibit; death of the cells (MT-2 cells): 90%
C=CCN1[C@@H](c2ccccn2)C(C(=O)OC)=C(O)C[C@H]1c1ccccn1 [Compound 24, Methyl (2'R,6'S)-1'-allyl-4'-hydroxy-1',2',5',6'-tetrahydro-2,2';6',2''-terpyridine-3'-carboxylate] | 35 | 1.08 ± 0.48 | high activity |  | 
CCOC(=O)C1=C(O)C(C(=O)OCC)[C@H](c2ccc([N+](=O)[O-])cc2)N(Cc2ccccc2)[C@H]1c1ccc([N+](=O)[O-])cc1 (stereo partly drawn) [Compound 13, Diethyl (2R,6S)-1-benzyl-4-hydroxy-2,6-bis(4-nitrophenyl)-1,2,3,6-tetrahydropyridine-3,5-dicarboxylate] | > 100 | 2.72 ± 0.51 |  | 20 | 
COC(=O)C1=C(O)C[C@@H](c2ccccn2)N(Cc2ccc(Cl)cc2)[C@H]1c1ccccn1 [Compound 21, Methyl (2'R,6'S)-1'-(4-chlorobenzyl)-4'-hydroxy-1',2',5',6'-tetrahydro-2,2';6',2''-terpyridine-3'-carboxylate] | 32.8 ± 0.49 | 0.32 ± 0.09 | high activity |  | 
COC(=O)C1=C(O)C(C(=O)OC)[C@H](c2ccc([N+](=O)[O-])cc2)N(Cc2ccccc2)[C@H]1c1ccc([N+](=O)[O-])cc1 (stereo partly drawn) [Compound 12, Dimethyl (2R,6S)-1-benzyl-4-hydroxy-2,6-bis(4-nitrophenyl)-1,2,3,6-tetrahydropyridine-3,5-dicarboxylate] | 18.4 ± 2.93 | 3.01 ± 0.27 |  | 20 | 
Cl.Clc1cccc(Cl)c1CON=CC1CCN(CCCc2ccccc2)CC1 [Compound 53, 4-[(2,6-Dichloro-benzyloxyimino)-methyl]-1-(3-phenyl-propyl)-piperidinium hydrochloride] | 28.4 ± 5.92 | 3.86 ± 1.95 |  |  | inhibition at 10 µM ([2]; Human immunodeficiency virus 1, HIV-1 BaL infected PM1 cells, concentration of 10 µM, read-out: virus replication inhibited): 85%; activity against trypanosomes (in words) ([3]; statement of the discussion): active against trypanosomes
